The source of these data is patent US9809623B2, “α4β7 peptide monomer and dimer antagonists” (Protagonist Therapeutics, Inc., priority 2014, dated 2017).

Numbered stars: 1 amine (or outer) side, 2 acyl side, 3 side chain; on linkers, the order of the positions; unused ones are H or OH. Bridge positions count the residues as written; N and C are the ends. Square brackets hold non-standard residues; d marks the D form. Peptide text beside a SMILES is read from it. I, II: the chains in the order shown. Phe(4-COOH) = N[C@@H](Cc1ccc(C(=O)O)cc1)C(=O)O; Phe(4-tBu) = CC(C)(C)c1ccc(C[C@H](N)C(=O)O)cc1; Bip = N[C@@H](Cc1ccc(-c2ccccc2)cc1)C(=O)O; 1Nal = N[C@@H](Cc1cccc2ccccc12)C(=O)O; Diglycolyl = O=C(COCC(=O)[*:2])[*:1]; NMeR = CN[C@@H](CCCNC(=N)N)C(=O)O; β3hE = N[C@@H](CCC(=O)O)CC(=O)O; NMeK = CN[C@@H](CCCCN)C(=O)O; Pen = CC(C)(S)[C@H](N)C(=O)O

The target in the test is T1, rh integrin α4β7 (Homo sapiens, UniProt P13612+P26010).
T1 construct: purchased R&D Systems 5397-A30
T1 sequence (P13612 34-977 limits assumed): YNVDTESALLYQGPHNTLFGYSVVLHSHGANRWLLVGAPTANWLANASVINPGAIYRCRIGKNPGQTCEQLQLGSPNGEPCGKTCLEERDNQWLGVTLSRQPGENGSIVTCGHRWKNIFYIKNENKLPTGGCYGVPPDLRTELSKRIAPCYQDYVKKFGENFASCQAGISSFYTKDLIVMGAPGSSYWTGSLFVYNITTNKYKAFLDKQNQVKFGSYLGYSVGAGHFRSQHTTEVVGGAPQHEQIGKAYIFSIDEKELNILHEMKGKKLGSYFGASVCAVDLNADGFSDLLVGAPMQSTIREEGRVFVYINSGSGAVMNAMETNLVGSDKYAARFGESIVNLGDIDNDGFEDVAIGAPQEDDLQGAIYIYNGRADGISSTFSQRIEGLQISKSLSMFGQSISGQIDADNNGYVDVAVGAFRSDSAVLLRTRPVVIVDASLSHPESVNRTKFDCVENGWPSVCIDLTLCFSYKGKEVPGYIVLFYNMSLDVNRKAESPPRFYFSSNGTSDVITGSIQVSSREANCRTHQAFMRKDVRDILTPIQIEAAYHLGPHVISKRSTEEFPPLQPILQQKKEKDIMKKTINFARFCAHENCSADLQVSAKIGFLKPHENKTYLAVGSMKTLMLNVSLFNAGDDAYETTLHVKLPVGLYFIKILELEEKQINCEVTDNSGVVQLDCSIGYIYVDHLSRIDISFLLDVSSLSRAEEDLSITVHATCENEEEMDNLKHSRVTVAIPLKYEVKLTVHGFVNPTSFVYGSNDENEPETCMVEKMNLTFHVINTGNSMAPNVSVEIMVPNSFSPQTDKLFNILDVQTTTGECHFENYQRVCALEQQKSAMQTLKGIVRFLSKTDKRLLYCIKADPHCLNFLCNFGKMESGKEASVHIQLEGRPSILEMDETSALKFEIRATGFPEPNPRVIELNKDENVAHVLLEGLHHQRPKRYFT
T1 sequence (P26010 20-723 limits assumed): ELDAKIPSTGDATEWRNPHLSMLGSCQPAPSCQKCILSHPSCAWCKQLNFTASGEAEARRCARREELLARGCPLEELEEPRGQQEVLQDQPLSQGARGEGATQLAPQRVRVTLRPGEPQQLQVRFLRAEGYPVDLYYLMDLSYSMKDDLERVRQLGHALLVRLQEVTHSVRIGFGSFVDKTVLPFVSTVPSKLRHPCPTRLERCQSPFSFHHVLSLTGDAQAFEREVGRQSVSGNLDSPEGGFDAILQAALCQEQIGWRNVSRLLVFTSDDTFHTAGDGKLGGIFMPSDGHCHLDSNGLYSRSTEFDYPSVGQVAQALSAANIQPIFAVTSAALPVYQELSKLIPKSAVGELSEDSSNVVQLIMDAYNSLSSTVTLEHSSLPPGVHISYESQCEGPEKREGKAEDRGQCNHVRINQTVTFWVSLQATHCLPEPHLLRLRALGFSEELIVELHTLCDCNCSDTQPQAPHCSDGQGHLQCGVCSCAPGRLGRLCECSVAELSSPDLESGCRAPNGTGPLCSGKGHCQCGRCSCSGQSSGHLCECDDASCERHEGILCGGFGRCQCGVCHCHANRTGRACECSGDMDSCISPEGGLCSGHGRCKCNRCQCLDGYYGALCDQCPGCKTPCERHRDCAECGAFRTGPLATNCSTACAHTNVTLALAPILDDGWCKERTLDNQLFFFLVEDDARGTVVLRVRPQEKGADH
The experiment in a line: α4β7-MAdCAM Competition ELISA. The test is classed as binding. The following applies: Table 3-B, Potency (α4β7); range classes; read-out: α4β7 ELISA IC50. The gist of the method: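 Recombinant human α4β7 was captured on nickel plates at 800 ng/well. Peptide in 3-fold serial dilution (final top 10 μM) competed with MAdCAM-1 (final 10 nM) for 1 h at room temperature in 50 mM Tris pH 7.6, 150 mM NaCl, 1 mM MnCl2 or MgCl2. Bound MAdCAM-1 was detected with anti-human IgG1-HRP/TMB at A450.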
Turning to `CC(=O)N[C@@H]1C(=O)N(C)[C@@H](CCCNC(=N)N)C(=O)N[C@@H](CO)C(=O)N[C@@H](CC(=O)O)C(=O)N[C@@H]([C@@H](C)O)C(=O)N[C@@H](CC(C)C)C(=O)N[C@H](C(=O)N[C@@H](Cc2c[nH]c3ccccc23)C(=O)N[C@@H](CCC(=O)O)C(=O)N[C@H](CCCCNC(=O)COCC(=O)NCCCC[C@@H](NC(=O)[C@H](CCC(=O)O)NC(=O)[C@H](Cc2c[nH]c3ccccc23)NC(=O)[C@H]2NC(=O)[C@H](CC(C)C)NC(=O)[C@H]([C@@H](C)O)NC(=O)[C@H](CC(=O)O)NC(=O)[C@H](CO)NC(=O)[C@H](CCCNC(=N)N)N(C)C(=O)[C@@H](NC(C)=O)C(C)(C)SSC2(C)C)C(=O)O)C(=O)O)C(C)(C)SSC1(C)C` [compound 78] (I: Ac-[Pen][NMeR]SDTL[Pen]WE[dK]-OH / II: Ac-[Pen][NMeR]SDTL[Pen]WE[dK]-OH; disulfide I:1-I:7, II:1-II:7; linker I:10-II:10 via Diglycolyl), the IC50 (as a rule, the point on the concentration scale where inhibition reaches its midpoint) is less than 10 nM.

In the case of `CC(=O)N[C@@H]1C(=O)N(C)[C@@H](CCCNC(=N)N)C(=O)N[C@@H](CO)C(=O)N[C@@H](CC(=O)O)C(=O)N[C@@H]([C@@H](C)O)C(=O)N[C@@H](CC(C)C)C(=O)N[C@H](C(=O)N[C@@H](Cc2ccc(C(=O)O)cc2)C(=O)N[C@@H](CCC(=O)O)C(=O)N[C@H](CCCCNC(=O)COCC(=O)NCCCC[C@@H](NC(=O)[C@H](CCC(=O)O)NC(=O)[C@H](Cc2ccc(C(=O)O)cc2)NC(=O)[C@H]2NC(=O)[C@H](CC(C)C)NC(=O)[C@H]([C@@H](C)O)NC(=O)[C@H](CC(=O)O)NC(=O)[C@H](CO)NC(=O)[C@H](CCCNC(=N)N)N(C)C(=O)[C@@H](NC(C)=O)C(C)(C)SSC2(C)C)C(N)=O)C(N)=O)C(C)(C)SSC1(C)C` [compound 129] (I: Ac-[Pen][NMeR]SDTL[Pen][Phe(4-COOH)]E[dK]-NH2 / II: Ac-[Pen][NMeR]SDTL[Pen][Phe(4-COOH)]E[dK]-NH2; disulfide I:1-I:7, II:1-II:7; linker I:10-II:10 via Diglycolyl), the IC50 was less than 10 nM. In the case of `CC(=O)N[C@@H]1C(=O)N(C)[C@@H](CCCNC(=N)N)C(=O)N[C@@H](CO)C(=O)N[C@@H](CC(=O)O)C(=O)N[C@@H]([C@@H](C)O)C(=O)N[C@@H](CC(C)C)C(=O)N[C@H](C(=O)N[C@@H](Cc2ccc(C(=O)O)cc2)C(=O)N[C@@H](CCC(=O)O)CC(=O)N[C@H](CCCCNC(=O)COCC(=O)NCCCC[C@@H](NC(=O)C[C@H](CCC(=O)O)NC(=O)[C@H](Cc2ccc(C(=O)O)cc2)NC(=O)[C@H]2NC(=O)[C@H](CC(C)C)NC(=O)[C@H]([C@@H](C)O)NC(=O)[C@H](CC(=O)O)NC(=O)[C@H](CO)NC(=O)[C@H](CCCNC(=N)N)N(C)C(=O)[C@@H](NC(C)=O)C(C)(C)SSC2(C)C)C(N)=O)C(N)=O)C(C)(C)SSC1(C)C` [compound 130] (I: Ac-[Pen][NMeR]SDTL[Pen][Phe(4-COOH)][β3hE][dK]-NH2 / II: Ac-[Pen][NMeR]SDTL[Pen][Phe(4-COOH)][β3hE][dK]-NH2; disulfide I:1-I:7, II:1-II:7; linker I:10-II:10 via Diglycolyl) it was less than 10 nM; in that of `CC(=O)N[C@@H]1C(=O)N(C)[C@@H](CCCNC(=N)N)C(=O)N[C@@H](CO)C(=O)N[C@@H](CC(=O)O)C(=O)N[C@@H]([C@@H](C)O)C(=O)N[C@@H](CC(C)C)C(=O)N[C@H](C(=O)N[C@@H](Cc2ccc(C(C)(C)C)cc2)C(=O)N[C@@H](CCC(=O)O)CC(=O)N[C@H](CCCCNC(=O)COCC(=O)NCCCC[C@@H](NC(=O)C[C@H](CCC(=O)O)NC(=O)[C@H](Cc2ccc(C(C)(C)C)cc2)NC(=O)[C@H]2NC(=O)[C@H](CC(C)C)NC(=O)[C@H]([C@@H](C)O)NC(=O)[C@H](CC(=O)O)NC(=O)[C@H](CO)NC(=O)[C@H](CCCNC(=N)N)N(C)C(=O)[C@@H](NC(C)=O)C(C)(C)SSC2(C)C)C(N)=O)C(N)=O)C(C)(C)SSC1(C)C` [compound 132] (I: Ac-[Pen][NMeR]SDTL[Pen][Phe(4-tBu)][β3hE][dK]-NH2 / II: Ac-[Pen][NMeR]SDTL[Pen][Phe(4-tBu)][β3hE][dK]-NH2; disulfide I:1-I:7, II:1-II:7; linker I:10-II:10 via Diglycolyl), less than 10 nM; in that of `CC(=O)N[C@@H]1C(=O)N(C)[C@@H](CCCNC(=N)N)C(=O)N[C@@H](CO)C(=O)N[C@@H](CC(=O)O)C(=O)N[C@@H]([C@@H](C)O)C(=O)N[C@@H](CC(C)C)C(=O)N[C@H](C(=O)N[C@@H](Cc2cccc3ccccc23)C(=O)N[C@@H](CCC(=O)O)CC(=O)N(C)[C@@H](CCCCNC(=O)COCC(=O)NCCCC[C@@H](C(N)=O)N(C)C(=O)C[C@H](CCC(=O)O)NC(=O)[C@H](Cc2cccc3ccccc23)NC(=O)[C@H]2NC(=O)[C@H](CC(C)C)NC(=O)[C@H]([C@@H](C)O)NC(=O)[C@H](CC(=O)O)NC(=O)[C@H](CO)NC(=O)[C@H](CCCNC(=N)N)N(C)C(=O)[C@@H](NC(C)=O)C(C)(C)SSC2(C)C)C(N)=O)C(C)(C)SSC1(C)C` [compound 142] (I: Ac-[Pen][NMeR]SDTL[Pen][1Nal][β3hE][NMeK]-NH2 / II: Ac-[Pen][NMeR]SDTL[Pen][1Nal][β3hE][NMeK]-NH2; disulfide I:1-I:7, II:1-II:7; linker I:10-II:10 via Diglycolyl), less than 10 nM. As for `CC(=O)N[C@@H]1C(=O)N(C)[C@@H](CCCNC(=N)N)C(=O)N[C@@H](CO)C(=O)N[C@@H](CC(=O)O)C(=O)N[C@@H]([C@@H](C)O)C(=O)N[C@@H](CC(C)C)C(=O)N[C@H](C(=O)N[C@@H](Cc2ccc(C(=O)O)cc2)C(=O)N[C@@H](CCC(=O)O)C(=O)N(C)[C@@H](CCCCNC(=O)COCC(=O)NCCCC[C@@H](C(N)=O)N(C)C(=O)[C@H](CCC(=O)O)NC(=O)[C@H](Cc2ccc(C(=O)O)cc2)NC(=O)[C@H]2NC(=O)[C@H](CC(C)C)NC(=O)[C@H]([C@@H](C)O)NC(=O)[C@H](CC(=O)O)NC(=O)[C@H](CO)NC(=O)[C@H](CCCNC(=N)N)N(C)C(=O)[C@@H](NC(C)=O)C(C)(C)SSC2(C)C)C(N)=O)C(C)(C)SSC1(C)C` [compound 147] (I: Ac-[Pen][NMeR]SDTL[Pen][Phe(4-COOH)]E[NMeK]-NH2 / II: Ac-[Pen][NMeR]SDTL[Pen][Phe(4-COOH)]E[NMeK]-NH2; disulfide I:1-I:7, II:1-II:7; linker I:10-II:10 via Diglycolyl), the figure is less than 10 nM. In the case of `CC(=O)N[C@@H]1C(=O)N(C)[C@@H](CCCNC(=N)N)C(=O)N[C@@H](CO)C(=O)N[C@@H](CC(=O)O)C(=O)N[C@@H]([C@@H](C)O)C(=O)N[C@@H](CC(C)C)C(=O)N[C@H](C(=O)N[C@@H](Cc2ccc(C(=O)O)cc2)C(=O)N[C@@H](CCC(=O)O)CC(=O)N(C)[C@@H](CCCCNC(=O)COCC(=O)NCCCC[C@@H](C(N)=O)N(C)C(=O)C[C@H](CCC(=O)O)NC(=O)[C@H](Cc2ccc(C(=O)O)cc2)NC(=O)[C@H]2NC(=O)[C@H](CC(C)C)NC(=O)[C@H]([C@@H](C)O)NC(=O)[C@H](CC(=O)O)NC(=O)[C@H](CO)NC(=O)[C@H](CCCNC(=N)N)N(C)C(=O)[C@@H](NC(C)=O)C(C)(C)SSC2(C)C)C(N)=O)C(C)(C)SSC1(C)C` [compound 148] (I: Ac-[Pen][NMeR]SDTL[Pen][Phe(4-COOH)][β3hE][NMeK]-NH2 / II: Ac-[Pen][NMeR]SDTL[Pen][Phe(4-COOH)][β3hE][NMeK]-NH2; disulfide I:1-I:7, II:1-II:7; linker I:10-II:10 via Diglycolyl) it was less than 10 nM. On to `CC(=O)N[C@@H]1C(=O)N(C)[C@@H](CCCNC(=N)N)C(=O)N[C@@H](CO)C(=O)N[C@@H](CC(=O)O)C(=O)N[C@@H]([C@@H](C)O)C(=O)N[C@@H](CC(C)C)C(=O)N[C@H](C(=O)N[C@@H](Cc2ccc(C(C)(C)C)cc2)C(=O)N[C@@H](CCC(=O)O)CC(=O)N(C)[C@@H](CCCCNC(=O)COCC(=O)NCCCC[C@@H](C(N)=O)N(C)C(=O)C[C@H](CCC(=O)O)NC(=O)[C@H](Cc2ccc(C(C)(C)C)cc2)NC(=O)[C@H]2NC(=O)[C@H](CC(C)C)NC(=O)[C@H]([C@@H](C)O)NC(=O)[C@H](CC(=O)O)NC(=O)[C@H](CO)NC(=O)[C@H](CCCNC(=N)N)N(C)C(=O)[C@@H](NC(C)=O)C(C)(C)SSC2(C)C)C(N)=O)C(C)(C)SSC1(C)C` [compound 149] (I: Ac-[Pen][NMeR]SDTL[Pen][Phe(4-tBu)][β3hE][NMeK]-NH2 / II: Ac-[Pen][NMeR]SDTL[Pen][Phe(4-tBu)][β3hE][NMeK]-NH2; disulfide I:1-I:7, II:1-II:7; linker I:10-II:10 via Diglycolyl), for which the IC50 was less than 10 nM. As for `CC(=O)N[C@@H]1C(=O)N(C)[C@@H](CCCNC(=N)N)C(=O)N[C@@H](CO)C(=O)N[C@@H](CC(=O)O)C(=O)N[C@@H]([C@@H](C)O)C(=O)N[C@@H](CC(C)C)C(=O)N[C@H](C(=O)N[C@@H](Cc2ccc(-c3ccccc3)cc2)C(=O)N[C@@H](CCC(=O)O)CC(=O)N(C)[C@@H](CCCCNC(=O)COCC(=O)NCCCC[C@@H](C(N)=O)N(C)C(=O)C[C@H](CCC(=O)O)NC(=O)[C@H](Cc2ccc(-c3ccccc3)cc2)NC(=O)[C@H]2NC(=O)[C@H](CC(C)C)NC(=O)[C@H]([C@@H](C)O)NC(=O)[C@H](CC(=O)O)NC(=O)[C@H](CO)NC(=O)[C@H](CCCNC(=N)N)N(C)C(=O)[C@@H](NC(C)=O)C(C)(C)SSC2(C)C)C(N)=O)C(C)(C)SSC1(C)C` [compound 150] (I: Ac-[Pen][NMeR]SDTL[Pen][Bip][β3hE][NMeK]-NH2 / II: Ac-[Pen][NMeR]SDTL[Pen][Bip][β3hE][NMeK]-NH2; disulfide I:1-I:7, II:1-II:7; linker I:10-II:10 via Diglycolyl), the figure is less than 10 nM; as for `CC(=O)N[C@@H]1C(=O)N(C)[C@@H](CCCNC(=N)N)C(=O)N[C@@H](CO)C(=O)N[C@@H](CC(=O)O)C(=O)N[C@@H]([C@@H](C)O)C(=O)N[C@@H](CC(C)C)C(=O)N[C@H](C(=O)N[C@@H](Cc2ccc(C(C)(C)C)cc2)C(=O)N[C@@H](CCC(=O)O)CC(=O)O)C(C)(C)SSC1(C)C` [compound 152] (Ac-[Pen][NMeR]SDTL[Pen][Phe(4-tBu)][β3hE]-OH; disulfide 1-7), less than 10 nM.
